Experimental data as given in ChEMBL document CHEMBL1138860, “Design, synthesis, and evaluation of a potent, cell-permeable, conformationally constrained second mitochondria derived activator of caspase (Smac) mimetic” (J Med Chem, 2006).

Experiments:
MDA-MB-231 [1] = experiment: Induction of cell death in MDA-MB-231 by Trypan blue exclusion assay at 100 nM after 4 days; format: functional, Homo sapiens
MDA-MB-231 [2] = experiment: Inhibition of MDA-MB-231 cell growth by WST assay; format: functional, cell-based; details: Homo sapiens
MDA-MB-231 [3] = experiment: Induction of cell death in MDA-MB-231 by Trypan blue exclusion assay at 1 uM 4 days; format: functional, Homo sapiens

| SMILES | Activity (MDA-MB-231 [1]) [%] | IC50 (MDA-MB-231 [2]) [µM] | Activity (MDA-MB-231 [3]) [%] |
| --- | --- | --- | --- |
| CC[C@H](NC)C(=O)N[C@H]1CCC[C@H]2CC[C@@H](C(=O)NC(c3ccccc3)c3ccccc3)N2C1=O | 40 | 0.1 | 80 |
| CC[C@@H](C(=O)N[C@H]1CCC[C@H]2CC[C@@H](C(=O)NC(c3ccccc3)c3ccccc3)N2C1=O)N(C)C | – | 3 | – |
| C[C@H](O)C(=O)N[C@H]1CCC[C@H]2CC[C@@H](C(=O)NC(c3ccccc3)c3ccccc3)N2C1=O | – | 65 | – |
| CC[C@H](N)C(=O)N[C@H]1CCC[C@H]2CC[C@@H](C(=O)NC(c3ccccc3)c3ccccc3)N2C1=O | – | 50 | – |
